Results from patent US10457707B2, “Substituted urea depsipeptide analogs as activators of the CLPP endopeptidase” (priority 2015, dated 2019).
≈ marks a conversion by molar mass, not a printed value. Read-outs that look alike come from different tables or passages of the source. *1 amine or outer side, *2 acyl side, *3 side chain or, on linkers, in order; H or OH if unused. Where a SMILES comes first, the peptide text is derived from it. Bridges are numbered along the chain shown (N, C = ends). [ ]: non-standard residue; d: D form. The star is where a group is joined. ξ: configuration not given here. Phe(3,5-F2) = N[CH](Cc1cc(F)cc(F)c1)C(=O)O; X14 = O=C(C1CC(OP(=O)(O)O)CN1[*:1])[*:2]; Pro(4S-Me) = C[C@@H]1CN[C@H](C(=O)O)C1; Pro(4R-Me) = C[C@H]1CN[C@H](C(=O)O)C1; NH(3,4-Me2-phenyl) = Cc1ccc(N*)cc1C; NH(4-Me-phenyl) = Cc1ccc(N*)cc1; aThr = C[C@H](O)[C@H](N)C(=O)O; ξPro(4ξ-Me) = CC1CNC(C(=O)O)C1; Pip = O=C(O)[CH]1CCCCN1; X3 = Cn1ccc2ccc(N*)cc21; CO = O=C([*:1])[*:2]

What was measured:
Sa-ClpP [1] = biological target: T1, Sa-ClpP (Staphylococcus aureus, UniProt Q2G036); experiment: ADEP displacement fluorescence polarization assay (FP probe ADEP 2591); format: binding
T1 construct: made in house; host or cells: E. coli BL21(DE3)
T1 sequence (Q2G036 1-195): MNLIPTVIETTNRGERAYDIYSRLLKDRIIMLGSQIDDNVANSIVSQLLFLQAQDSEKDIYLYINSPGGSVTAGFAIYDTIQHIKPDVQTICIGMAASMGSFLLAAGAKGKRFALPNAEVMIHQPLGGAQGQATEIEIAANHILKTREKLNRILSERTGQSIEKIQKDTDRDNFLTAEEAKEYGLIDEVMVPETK
Description: A fluorescence polarization (FP) assay was used to determine the activity of the disclosed compounds in displacing an ADEP analogue from ClpP. Briefly, the assay was performed in black 384 well, flat bottom, low volume plates (Greiner Bio-One, Monroe, N.C., catalog #784076). 20 μL of a pre-equilibrated (1 hr, room temperature) master mix (15 μM Sa-ClpP, 2% DMSO (v/v) and 50 nM FP probe in Tris*HCl, pH 8.0)) was pipetted into each well using a Well-Mate (Thermo Scientific, Waltham, Mass.). Sa-ClpP was prepared as described above for the ClpP activation assay. The FP probe was ADEP 2591 (structure shown above). The ADEP 2591 comprises a TAMRA fluorophore linked to a core based on modified ADEP 2378 via a short alkyl linker. Using pin transfer, approximately 0.4 μL (2% v/v DMSO) of each compound or control was added per well. After addition of compounds and controls, plates were allowed to incubate for an additional 120 minutes at room temperature. All assays were performed in triplicate. Polarization was monitored using an EnVision Multilabel reader (Perkin-Elmer, Waltham, Mass.) by exciting the FP probe at 530±25 nm, and monitoring fluorescence intensity of both parallel and perpendicular polarized light at 579±25 nm. Readout was in millipolarization units (mP).
Data collected was normalized to values obtained from positive (200 μM ADEP 2378) or negative (DMSO) controls. Curves were fit with non-linear regression using the equation “log [inhibitor] vs. Response-variable slope (four parameters)-symmetrical” in the program Prism 6 (GraphPad Software, La Jolla, Calif. USA, www.graphpad.com). The structures for ADEP 2378 and ADEP 2591 are shown above. ADEP 2378 is (E)-N—((S)-1-(((2R,6S,8aS,14aS,20S,23aS)-2,6-dimethyl-5,8,14,19,23-pentaoxooctadecahydro-1H,5H,14H,19H-pyrido[2,1-i]dipyrrolo[2,1-c:2′,1′-1][1]oxa[4,7,10,13]tetraazacyclohexadecin-20-yl)amino)-1-oxo-3-phenylpropan-2-yl)pent-2-enamide. ADEP 2591 is 5-(3-(3-((6S,9S,11aS,17S,20aS)-6,10-dimethyl-5,8,11,16,20-pentaoxo-17-((S)-2-((E)-pent-2-enamido)-3-phenylpropanamido)hexadecahydro-1H,5H,16H-dipyrrolo[2,1-c:2′,1′-1][1]oxa[4,7,10,13]tetraazacyclohexadecin-9-yl)propyl)thioureido)-2-(6-(dimethylamino)-3-(dimethyliminio)-3H-xanthen-9-yl)benzoate.

Sa-ClpP [2] = biological target: T1, Sa-ClpP; experiment: Sa-ClpP casein-BODIPY ClpP activation assay, method variant not marked in Table 5; format: biochemical, S. aureus
Description: The compounds were assayed in a casein digestion assay in order to determine their effect on ClpP activation. Briefly, the assay was carried out using S. aureus ClpP (“Sa-ClpP”) overexpressed in E. coli BL21(DE3) and purified in a two-step process. Purity of the protein was assessed through SDS PAGE analysis. EC50 evaluations were conducted in triplicate in a 20 μl assay format using a method adapted from Maurizi et al. (Methods Enzymol. (1994) 244:314-331). Each well contained 10 μM saClpP, 25 μg/ml BODIPY FL casein (Invitrogen Corporation, San Diego, Calif.), and test compound in concentrations ranging between 0-1000 μM in assay buffer (50 mM Tris pH 8, 200 mM KCl, and 1 mM TCEP). The reaction took place at 37° C. Fluorescence (excitation 485 nm; emission 528 nm) was measured in five minute intervals over a 45 min period using a BioTek HT fluorescence microplate reader (BioTek Instruments, Inc., Winooski, Vt.). Velocity of each reaction was calculated and data was fit to a dose response curve using GraphPad Prism® software (GraphPad Software, Inc., La Jolla, Calif.). EC50 is the effective concentration of compound which causes 50% activation of S. aureus ClpP in the foregoing BODIPY FL casein assay.
Alternatively, the assay was carried out using EnzCheck Protease Assay (Molecular Probes, Catalog # E6638). The assay was performed in black 384 well, flat bottom, low volume plates (Greiner Bio-One, Monroe, N.C., catalog #784076). 10 μL of Tris*HCl buffer, pH 8.0 with 0.01% Triton X-100 was pipetted into each well using a Well-Mate (Thermo Scientific, Waltham, Mass.). 0.4 μL test compounds or controls (2% DMSO v/v) were added to each well using a Biomek FX liquid handling robot (Beckman Coulter, Indianapolis Ind.). After addition of test compounds and controls, 10 μL of master mix containing 2 μM Sa-ClpP and 2 μM substrate (Bodipy-FL labeled casein) in Tris*HCl buffer, pH 8.0 with 0.01% (v/v) Triton X-100, was pipetted into each well. All assays were performed in triplicate, under linear velocity conditions. Increase in fluorescent signal following activation of Sa-ClpP by test compounds and controls was measured over time period of 30 mins using filters with excitation at 485±15 nm and emission at 520±25 nm on a PHERAstar FS Multilabel reader (BMG, Cary, N.C.). […] Data analysis was done by measuring rate of casein degradation over time (slopes). Computed degradation rates (slopes) were normalized to positive (ADEP4) or negative (DMSO) controls. Using nonlinear regression curve fitting EC50 values and % activation were determined using the equation “log [agonist] vs. Response-variable slope (four parameters)-symmetrical” in the program Prism 6 (GraphPad Software, La Jolla, Calif. USA, www.graphpad.com).
Substituted urea depsipetide analogs were synthesized as described above. The EC50 for ClpP activation was determined in the Sa-ClpP in casein-BODIPY assay as described above. The IC50 for ADEP displacement was determined in the ADEP displacement fluorescent polarization assay as described above; and the IC50 for growth inhibition was determined in the Vero cell cytotoxicity assay as described above. The compound number corresponds to the compound numbers used in Tables 1-4 and the experimental examples described above.

[3] = tested on: Staphylococcus aureus, USA 300; experiment: Minimal inhibitory concentration assay; format: cell-based; conditions: USA300, read-out: Minimal Inhibitory Concentrations S. aureus USA 300
Method in brief: (§1)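 Compound is serially diluted two-fold in the appropriate broth, and bacterial inoculum at about 10^5 cfu/mL is added so the highest final concentration is 200 μM. Plates stay overnight at 37 °C under aerobic conditions before growth is scored by eye.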

[4] = tested on: Staphylococcus aureus, USA 300 wherein ClpP is inactivated; experiment: Minimal inhibitory concentration assay; format: cell-based
Method in brief: as §1

[5] = tested on: Streptococcus pyogenes, ATCC 700294; experiment: Minimal inhibitory concentration assay (microbroth dilution); format: cell-based; conditions: Streptococcus pyogenes, ATCC700294, read-out: Minimal Inhibitory Concentrations S. pyogenes ATCC 700294
Method in brief: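 Plates with two-fold compound dilution series in broth were incubated overnight, aerobically, at 37° C, following CLSI microdilution guidance.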

[6] = Cytotoxicity assay (CellTiter-Glo cell viability, 72 hours); format: cell-based; conditions: African green monkey; Vero cells, 72 hours, growth inhibition; read-out: Cytotoxicity IC50
Description: Cytotoxicity was determined by determining the effect of compounds on cell viability. Vero (kidney epithelial cells; ATCC CCL-81) monolayers were trypsinized and 5000 cells/well were seeded (10-15% confluency) into white-wall, flat bottom 96 well microwell plates (Corning) using enriched Dulbecco's Modified Eagle's Medium (Hyclone:DMEM/High Glucose) containing 10% Fetal Bovine Serum (ATCC-30-2020). Plates were incubated overnight at 37° C. in the presence of 5% CO2. Drug-free media was then replaced with media containing serial dilutions of test compound or DMSO carrier. After an additional 72 hours of incubation, viability was indirectly measured using the CellTiter-Glo® Luminescent Cell Viability (Promega) assay. Assay plates were read at peak emission wavelength of 560 nm using a EnVision® Multilabel Plate Reader (Perkin Elmer) or PHERAstar FS Multilabel reader (BMG, Cary, N.C.). […] USA, www.graphpad.com]. For each experiment, compounds were tested in duplicate. IC50 values presented are the range of two biologically independent experiments.

[7] = tested on: Staphylococcus aureus, NRS70; experiment: Minimal inhibitory concentration assay (microbroth dilution); format: cell-based; conditions: Staphylococcus aureus, NRS70, read-out: Minimal Inhibitory Concentrations S. aureus NRS70
Method in brief: as §1

[8] = tested on: Enterococcus faecalis, ATCC 33186; experiment: as above; format: cell-based; conditions: Enterococcus faecalis, ATCC33186, read-out: Minimal Inhibitory Concentrations E. faecalis ATCC 33186
Method in brief: as §1

[9] = tested on: Staphylococcus aureus, ATCC 29213; experiment: as above; format: cell-based; conditions: ATCC29213, read-out: Minimal Inhibitory Concentrations S. aureus ATCC 29213
Method in brief: as §1

[10] = tested on: Bacillus subtilis, ATCC 23857; experiment: as above; format: cell-based; conditions: Bacillus subtilis, ATCC23857, read-out: Minimal Inhibitory Concentrations B. subtilis ATCC 23857
Method in brief: as §1

[11] = displacement of FP probe ADEP 2591 from Sa-ClpP, read-out: ADEP Displacement IC50
[12] = values without ** or † mark, assay variant not stated, read-out: ClpP Activation EC50

sodium (2R,6S,8aS,14aS,16R,20S,21S,23aS)-20-((S)-3-(3,5-difluorophenyl)-2-(3-(p-tolyl)ureido)propanamido)-2,6,21-trimethyl-5,8,14,19,23-pentaoxooctadecahydro-1H,5H,14H,19H-pyrido[2,1-i]dipyrrolo[2,1-c:2′,1′-l][1]oxa[4,7,10,13]tetraazacyclohexadecin-16-yl phosphate [Compound 191]
IC50 (Sa-ClpP [1]; [11]): 8.56 ± 0.38 µM
EC50 (Sa-ClpP [2]; [12]): 700 ± 30 nM

Cc1ccc(NC(=O)NC(Cc2cc(F)cc(F)c2)C(=O)NC2C(=O)N3CC(OP(=O)(O)O)CC3C(=O)N3CCCCC3C(=O)NC(C)C(=O)N3CC(C)CC3C(=O)OC2C)cc1C [Compound 192, sodium (2R,6S,8aS,14aS,16R,20S,21S,23aS)-20-((S)-3-(3,5-difluorophenyl)-2-(3-(3,4-dimethylphenyl)ureido)propanamido)-2,6,21-trimethyl-5,8,14,19,23-pentaoxooctadecahydro-1H,5H,14H,19H-pyrido[2,1-i]dipyrrolo[2,1-c:2′,1′-l][1]oxa[4,7,10,13]tetraazacyclohexadecin-16-yl phosphate] ({NH(3,4-Me2-phenyl)-CO}-[Phe(3,5-F2)]T[X14][Pip]A[ξPro(4ξ-Me)]; ester 2-C; configuration not given here)
IC50 (Sa-ClpP [1]): 7.37 ± 0.28 µM
EC50 (Sa-ClpP [2]): 600 ± 20 nM

C[C@@H]1C[C@H]2C(=O)O[C@@H](C)[C@H](NC(=O)[C@H](Cc3cc(F)cc(F)c3)NC(=O)Nc3ccc4ccn(C)c4c3)C(=O)N3CCC[C@H]3C(=O)N3CCCC[C@H]3C(=O)N[C@@H](C)C(=O)N2C1 [Compound 306, (S)-3-(3,5-difluorophenyl)-2-(3-(1-methyl-1H-indol-6-yl)ureido)-N-((2R,6S,8aS,14aS,20S,21S,23aS)-2,6,21-trimethyl-5,8,14,19,23-pentaoxooctadecahydro-1H,5H,14H,19H-pyrido[2,1-i]dipyrrolo[2,1-c:2′,1′-l][1]oxa[4,7,10,13]tetraazacyclohexadecin-20-yl)propanamide] ({X3-CO}-[Phe(3,5-F2)][aThr]P[Pip]A[Pro(4R-Me)]; ester 2-C)
MIC [3]: 0.156 µM (≈ 0.132 µg/mL)
Minimal Inhibitory Concentrations S. aureus USA 300 ΔClpP [4]: >20 µM
MIC [5]: 0.313 µM (≈ 0.265 µg/mL)
IC50 at 72 h [6]: 11.8 ± 0.8 µM
MIC [7]: 0.078 µM (≈ 0.0661 µg/mL)
MIC [8]: 0.039 µM (≈ 0.033 µg/mL)
MIC [9]: 0.156 µM (≈ 0.132 µg/mL)
MIC [10]: 0.078 µM (≈ 0.0661 µg/mL)

sodium (R)-1-((2R,6S,9S,11aS,17S,18S,20aS)-17-((S)-3-(3,5-difluorophenyl)-2-(3-(p-tolyl)ureido)propanamido)-2,6,10,18-tetramethyl-5,8,11,16,20-pentaoxohexadecahydro-1H,5H,16H-dipyrrolo[2,1-c:2′,1′-l][1]oxa[4,7,10,13]tetraazacyclohexadecin-9-yl)ethyl phosphate [Compound 193]
IC50 (Sa-ClpP [1]; [11]): 7.15 ± 0.33 µM
EC50 (Sa-ClpP [2]; [12]): 770 ± 50 nM

Cc1ccc(NC(=O)N[C@@H](Cc2cc(F)cc(F)c2)C(=O)N[C@@H]2C(=O)N3CCC[C@H]3C(=O)N3CCCC[C@H]3C(=O)N[C@@H](C)C(=O)N3C[C@@H](C)C[C@H]3C(=O)O[C@H]2C)cc1 [Compound 200, (S)-3-(3,5-difluorophenyl)-2-(3-(p-tolyl)ureido)-N-((2R,6S,8aS,14aS,20S,21S,23aS)-2,6,21-trimethyl-5,8,14,19,23-pentaoxooctadecahydro-1H,5H,14H,19H-pyrido[2,1-i]dipyrrolo[2,1-c:2′,1′-l][1]oxa[4,7,10,13]tetraazacyclohexadecin-20-yl)propanamide] ({NH(4-Me-phenyl)-CO}-[Phe(3,5-F2)][aThr]P[Pip]A[Pro(4S-Me)]; ester 2-C)
Minimal Inhibitory Concentrations S. aureus USA 300 ΔClpP [4]: 100 µM
IC50 at 72 h [6]: 26.7 ± 3.6 µM
